Measured values as given in PubChem BioAssay (NCI).
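Step 1: Grow cells in 96-well plates. Step 2: Expose to compound for 48 hours at 5 concentrations. Step 3: Interpolate endpoints linearly; if unreached, use highest concentration. GI50: concentration for 50% inhibition of growth. The concentration for full growth arrest is given as TGI.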

Experiments:
Experiment in all cases: NCI-60 cell line screen, 48 h
[1] = system: 786-0 renal
[2] = system: A498 renal
[3] = system: A549 NSCLC
[4] = system: ACHN renal
[5] = system: CAKI-1 renal
[6] = system: CCRF-CEM leukemia
[7] = system: COLO 205 colon
[8] = system: DLD-1 colon
[9] = system: DMS 273 small cell lung
[10] = system: EKVX NSCLC
[11] = system: HCC-2998 colon
[12] = system: HCT-116 colon
[13] = system: HCT-15 colon
[14] = system: HL-60(TB) leukemia
[15] = system: HOP-18 NSCLC
[16] = system: HOP-62 NSCLC
[17] = system: HOP-92 NSCLC
[18] = system: HT29 colon
[19] = system: IGROV1 ovarian
[20] = system: K-562 leukemia
[21] = system: KM12 colon
[22] = system: KM20L2 colon
[23] = system: LXFL 529 NSCLC
[24] = system: M14 melanoma
[25] = system: M19-MEL melanoma
[26] = system: MALME-3M melanoma
[27] = system: MOLT-4 leukemia
[28] = system: NCI-H226 lung
[29] = system: NCI-H23 lung
[30] = system: NCI-H460 lung
[31] = system: NCI-H522 lung
[32] = system: OVCAR-3 ovarian
[33] = system: OVCAR-4 ovarian
[34] = system: OVCAR-5 ovarian
[35] = system: OVCAR-8 ovarian
[36] = system: RPMI-8226 leukemia
[37] = system: RXF 393 renal
[38] = system: RXF-631 renal
[39] = system: SF-268 CNS
[40] = system: SF-295 CNS
[41] = system: SF-539 CNS
[42] = system: SK-MEL-2 melanoma
[43] = system: SK-MEL-28 melanoma
[44] = system: SK-MEL-5 melanoma
[45] = system: SK-OV-3 ovarian
[46] = system: SN12C renal
[47] = system: SNB-19 CNS
[48] = system: SNB-75 CNS
[49] = system: SNB-78 CNS
[50] = system: SR leukemia
[51] = system: SW-620 colon
[52] = system: TK-10 renal
[53] = system: U251 CNS
[54] = system: UACC-257 melanoma
[55] = system: UACC-62 melanoma
[56] = system: UO-31 renal
[57] = system: XF 498 CNS
[58] = system: BT-549 breast
[59] = system: DU-145 prostate
[60] = system: HS 578T breast
[61] = system: LOX IMVI melanoma
[62] = system: MCF7 breast
[63] = system: MDA-MB-231 breast
[64] = system: MDA-MB-435
[65] = system: MDA-N
[66] = system: NCI/ADR-RES ovarian
[67] = system: PC-3 prostate
[68] = system: T-47D breast
[69] = system: DMS 114 small cell lung

## N#CCC(=O)Nc1ccccc1O
[1]
  TGI: > 100 µM
[2]
  TGI: > 100 µM
[3]
  TGI: > 100 µM
[4]
  TGI: > 100 µM
[5]
  TGI: > 100 µM
[6]
  TGI: > 100 µM
[7]
  TGI: > 100 µM
[8]
  TGI: > 100 µM
[9]
  TGI: > 100 µM
[10]
  TGI: > 100 µM
[11]
  TGI: > 100 µM
[12]
  TGI: > 100 µM
[13]
  TGI: > 100 µM
[14]
  TGI: > 100 µM
[15]
  TGI: > 100 µM
[16]
  TGI: > 100 µM
[17]
  TGI: > 100 µM
[18]
  TGI: > 100 µM
[19]
  TGI: > 100 µM
[20]
  TGI: > 100 µM
[21]
  TGI: > 100 µM
[22]
  TGI: > 100 µM
[23]
  TGI: > 100 µM
[24]
  TGI: > 100 µM
[25]
  TGI: > 100 µM
[26]
  TGI: > 100 µM
[27]
  TGI: > 100 µM
[28]
  TGI: > 100 µM
[29]
  TGI: > 100 µM
[30]
  TGI: > 100 µM
[31]
  TGI: > 100 µM
[32]
  TGI: > 100 µM
[33]
  TGI: > 100 µM
[34]
  TGI: > 100 µM
[35]
  TGI: > 100 µM
[36]
  TGI: > 100 µM
[37]
  TGI: > 100 µM
[38]
  TGI: > 100 µM
[39]
  TGI: > 100 µM
[40]
  TGI: > 100 µM
[41]
  TGI: > 100 µM
[42]
  TGI: > 100 µM
[43]
  TGI: > 100 µM
[44]
  TGI: > 100 µM
[45]
  TGI: > 100 µM
[46]
  TGI: > 100 µM
[47]
  TGI: > 100 µM
[48]
  TGI: > 100 µM
[49]
  TGI: > 100 µM
[50]
  TGI: > 100 µM
[51]
  TGI: > 100 µM
[52]
  TGI: > 100 µM
[53]
  TGI: > 100 µM
[54]
  TGI: > 100 µM
[55]
  TGI: > 100 µM
[56]
  TGI: > 100 µM
[57]
  TGI: > 100 µM

## CCC(C)C(=O)OC1CCC=C2C=CC(C)C(CCC3CC(O)CC(=O)O3)C21 (stereo not given)
[1]
  TGI: > 65.9 µM
[2]
  TGI: > 66 µM
[3]
  TGI: > 100 µM
[4]
  TGI: > 88 µM
[58]
  TGI: 73 µM
[5]
  TGI: 29 µM
[6]
  TGI: > 100 µM
[7]
  TGI: 32.4 µM
[59]
  TGI: > 100 µM
[10]
  TGI: > 100 µM
[11]
  TGI: > 100 µM
[12]
  TGI: > 100 µM
[13]
  TGI: > 100 µM
[14]
  TGI: > 100 µM
[16]
  TGI: > 100 µM
[17]
  GI50: 790 nM
  TGI: > 100 µM
[60]
  TGI: 17.4 µM
[18]
  TGI: > 100 µM
[19]
  TGI: 44.1 µM
[20]
  TGI: > 100 µM
[21]
  TGI: > 100 µM
[61]
  TGI: > 100 µM
[24]
  TGI: > 27.5 µM
[26]
  TGI: > 100 µM
[62]
  TGI: > 72.2 µM
[63]
  TGI: > 64.7 µM
[64]
  TGI: > 100 µM
[65]
  TGI: > 100 µM
[27]
  TGI: > 100 µM
[28]
  TGI: > 100 µM
[29]
  TGI: > 100 µM
[30]
  TGI: > 100 µM
[31]
  TGI: 21 µM
[66]
  TGI: > 100 µM
[32]
  TGI: > 100 µM
[33]
  TGI: > 100 µM
[34]
  TGI: > 100 µM
[35]
  TGI: > 100 µM
[67]
  TGI: > 47.9 µM
[36]
  TGI: > 100 µM
[37]
  TGI: > 80.6 µM
[39]
  TGI: > 100 µM
[40]
  TGI: > 100 µM
[41]
  TGI: > 29.5 µM
[42]
  TGI: > 100 µM
[43]
  TGI: > 100 µM
[44]
  TGI: > 100 µM
[45]
  TGI: > 100 µM
[46]
  TGI: > 100 µM
[47]
  TGI: > 100 µM
[48]
  TGI: > 75.9 µM
[50]
  TGI: > 51 µM
[51]
  TGI: > 100 µM
[68]
  TGI: > 100 µM
[52]
  TGI: 98.8 µM
[53]
  TGI: > 100 µM
[54]
  TGI: > 100 µM
[55]
  TGI: > 100 µM
[56]
  TGI: > 100 µM

## Cn1c(=O)[nH]c2c(c1=O)C(=O)CN2
[3]
  TGI: > 100 µM
[5]
  TGI: > 100 µM
[6]
  TGI: > 100 µM
[7]
  TGI: > 100 µM
[8]
  TGI: > 100 µM
[69]
  TGI: > 100 µM
[9]
  TGI: > 100 µM
[10]
  TGI: > 100 µM
[11]
  TGI: > 100 µM
[12]
  TGI: > 100 µM
[13]
  TGI: > 100 µM
[14]
  TGI: > 100 µM
[15]
  TGI: > 100 µM
[19]
  TGI: > 100 µM
[20]
  TGI: > 100 µM
[21]
  TGI: > 100 µM
[22]
  TGI: > 100 µM
[61]
  TGI: > 100 µM
[23]
  TGI: > 100 µM
[24]
  TGI: > 100 µM
[25]
  TGI: > 100 µM
[26]
  TGI: > 100 µM
[27]
  TGI: > 100 µM
[28]
  TGI: > 100 µM
[30]
  TGI: > 100 µM
[33]
  TGI: > 100 µM
[34]
  TGI: > 100 µM
[35]
  TGI: > 100 µM
[36]
  TGI: > 100 µM
[37]
  TGI: > 100 µM
[39]
  TGI: > 100 µM
[40]
  TGI: > 100 µM
[41]
  TGI: > 100 µM
[42]
  TGI: > 100 µM
[43]
  TGI: > 100 µM
[44]
  TGI: > 100 µM
[45]
  TGI: > 100 µM
[46]
  TGI: > 100 µM
[47]
  TGI: > 100 µM
[48]
  TGI: > 100 µM
[49]
  TGI: > 100 µM
[50]
  TGI: > 100 µM
[51]
  TGI: > 100 µM
[52]
  TGI: > 100 µM
[53]
  TGI: > 100 µM
[54]
  TGI: > 100 µM
[56]
  TGI: > 100 µM
[57]
  TGI: > 100 µM
